Data as given in US20110190235A1, “BORON-CONTAINING SMALL MOLECULES AS ANTIPROTOZOAL AGENTS” (Anacor Pharmaceuticals, Inc., priority 2009, published 2011).
Where two headings read alike, the source gives them in different places.

Assay: Pharmacokinetic studies in rats (plasma, brain, CSF)
Format: in vivo
Settings: for half-life: read-out: t½ (converted); for Cmax / AUC(0-t) / AUC(0-inf): normalized to 25 mg/kg; for AUC(0-t): read-out: Exposure/trapezoid AUC0-18; for AUC(0-inf): read-out: Exposure/trapezoid AUC0-inf
Experimental: Male Sprague Dawley rats weighing approximately 200 g received test article (E19 or 82) as a single oral gavage (OG) dose of approximately 25 mg/kg (approximately 10 animals per group).
All doses were administered as clear colorless solutions as in situ sodium salts in 5% (m/v) dextrose:2% (v/v) ethanol in DWI. All dose solutions were delivered at 2 mL/kg. Animals were fasted for at least 4 hours before dosing, and for 2 hours after dosing.
Blood and CSF samples and brain tissue were sampled from 1 animal/timepoint/group immediately before dosing and approximately 0.5, 1, 2, 3, 4, 6, 8, 12, 18 and 24 hr after dosing for full pharmacokinetic (plasma and CSF) and tissue (Brain) analysis.

[1] = male, Sprague Dawley, rat, CSF, oral, rats
[2] = male, Sprague Dawley, rat, brain, oral, rats
[3] = male, Sprague Dawley, rat, plasma, oral, rats

CC1(C)OB(O)c2cc(NC(=O)c3ccc(F)cc3C(F)(F)F)ccc21 [compound 82]
half-life (male, Sprague Dawley, rat, 25 mg/kg, CSF, oral, rats): 8.7 h | half-life (male, Sprague Dawley, rat, 25 mg/kg, brain, oral, rats): 9.5 h | CL/F (male, Sprague Dawley, rat, 25 mg/kg, plasma, oral, rats, read-out: Oral Clearance Cl/F (converted)): 1.53 mL/min/kg | half-life (male, Sprague Dawley, rat, 25 mg/kg, plasma, oral, rats): 15.5 h | Cmax [1]: 1000 ng/mL | AUC(0-t) [1]: 13.6 µg·h/mL | AUC(0-inf) [1]: 16.8 µg·h/mL | Cmax [2]: 7900 ng/mL | AUC(0-t) [2]: 120 µg·h/mL | AUC(0-inf) [2]: 152 µg·h/mL | Cmax [3]: 17000 ng/mL | AUC(0-t) [3]: 272 µg·h/mL | AUC(0-inf) [3]: 433 µg·h/mL | time levels in brain and CSF are above the in vitro MIC (nominal single oral dose of 25 mg/kg to rats): approximately 12 hours | fold improved exposure in CSF over E19 (rat, in vivo): approximately 4 fold | Fold improvement 82 vs. E19: Oral Clearance Cl/F (rat, in vivo, po): 2.8 fold | Fold improvement 82 vs. E19: t½ (rat, in vivo, po, CSF): 2.8 fold | Fold improvement 82 vs. E19: t½ (rat, in vivo, po, brain): 3.7 fold | Fold improvement 82 vs. E19: t½ (rat, in vivo, po, plasma): 1.9 fold
